Source: the supplement of paper PMC8612539
Converted amounts (≈) assume the structure as drawn.

System: Histophilus somni
Experiment: minimum inhibitory concentration (MIC)
Experimental: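 Broth microdilution MIC (Sensititre BOPO7F bovine plate, CLSI methods) of 19 antimicrobials against field isolates of P. multocida, M. haemolytica, H. somni (deep nasopharyngeal swabs) and E. coli, Enterococcus spp. (rectal swabs) from weaned dairy heifers. Incubation 16-24 h at 35 C. MIC is the lowest concentration preventing visible growth. Values with <= or > lie at the tested range limits. Trimethoprim-sulfamethoxazole is given as the trimethoprim component of a 1:19 mixture.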

COc1cc(NS(=O)(=O)c2ccc(N)cc2)nc(OC)n1 [sulfadimethoxine]
Settings	minimum inhibitory concentration [µg/mL]
isolate (source animal id): 3	≤ 256
isolate (source animal id): 4	≤ 256
isolate (source animal id): 7	≤ 256
isolate (source animal id): 14	≤ 256
isolate (source animal id): 15	≤ 256
isolate (source animal id): 17	≤ 256
isolate (source animal id): 18	≤ 256
isolate (source animal id): 20	≤ 256
isolate (source animal id): 23	> 256
isolate (source animal id): 45	> 256
isolate (source animal id): 53	> 256
isolate (source animal id): 83	≤ 256
isolate (source animal id): 88	≤ 256
isolate (source animal id): 92	≤ 256
isolate (source animal id): 93	≤ 256
isolate (source animal id): 99	≤ 256
isolate (source animal id): 100	≤ 256
isolate (source animal id): 105	≤ 256
isolate (source animal id): 107	≤ 256
isolate (source animal id): 108	≤ 256
isolate (source animal id): 109	≤ 256
isolate (source animal id): 110	≤ 256
isolate (source animal id): 117	≤ 256
isolate (source animal id): 121	≤ 256
isolate (source animal id): 123	≤ 256
isolate (source animal id): 124	≤ 256
isolate (source animal id): 127	≤ 256
isolate (source animal id): 128	≤ 256
isolate (source animal id): 130	≤ 256
isolate (source animal id): 132	≤ 256
isolate (source animal id): 135	≤ 256
isolate (source animal id): 140	≤ 256
isolate (source animal id): 141	≤ 256
isolate (source animal id): 142	≤ 256
isolate (source animal id): 144	≤ 256
isolate (source animal id): 146	≤ 256
isolate (source animal id): 147	≤ 256
isolate (source animal id): 151	≤ 256
isolate (source animal id): 153	≤ 256
isolate (source animal id): 154	≤ 256
isolate (source animal id): 156	≤ 256
isolate (source animal id): 157	≤ 256
isolate (source animal id): 176	> 256
isolate (source animal id): 183	> 256
isolate (source animal id): 186	> 256
isolate (source animal id): 196	> 256
isolate (source animal id): 198	> 256
isolate (source animal id): 200	> 256
isolate (source animal id): 206	> 256
isolate (source animal id): 208	> 256
isolate (source animal id): 210	> 256
isolate (source animal id): 212	≤ 256
isolate (source animal id): 215	> 256
isolate (source animal id): 216	> 256
isolate (source animal id): 218	≤ 256
isolate (source animal id): 219	> 256
isolate (source animal id): 224	> 256
isolate (source animal id): 228	> 256
isolate (source animal id): 230	> 256
isolate (source animal id): 233	> 256
isolate (source animal id): 238	> 256
isolate (source animal id): 239	≤ 256
isolate (source animal id): 241	> 256
isolate (source animal id): 242	> 256
isolate (source animal id): 243	≤ 256
isolate (source animal id): 245	> 256
isolate (source animal id): 246	> 256
isolate (source animal id): 247	> 256
isolate (source animal id): 248	≤ 256
isolate (source animal id): 250	> 256
isolate (source animal id): 251	> 256
isolate (source animal id): 252	> 256
isolate (source animal id): 254	> 256
isolate (source animal id): 258	≤ 256
isolate (source animal id): 259	> 256
isolate (source animal id): 262	≤ 256
isolate (source animal id): 264	≤ 256
isolate (source animal id): 265	> 256
isolate (source animal id): 266	> 256
isolate (source animal id): 267	> 256
isolate (source animal id): 269	≤ 256
isolate (source animal id): 271	> 256
isolate (source animal id): 272	> 256
isolate (source animal id): 274	≤ 256
isolate (source animal id): 276	≤ 256
isolate (source animal id): 278	> 256
isolate (source animal id): 280	> 256
isolate (source animal id): 281	> 256
isolate (source animal id): 283	≤ 256
isolate (source animal id): 288	≤ 256
isolate (source animal id): 291	≤ 256
isolate (source animal id): 292	> 256
isolate (source animal id): 296	≤ 256
isolate (source animal id): 306	> 256
isolate (source animal id): 336	≤ 256
isolate (source animal id): 337	≤ 256
isolate (source animal id): 341	≤ 256

CN[C@@H]1[C@H](O)[C@H](NC)[C@H]2O[C@@]3(O)C(=O)C[C@@H](C)O[C@H]3O[C@@H]2[C@H]1O [Spectinomycin]
Settings	minimum inhibitory concentration [µg/mL]
isolate (source animal id): 3	> 64
isolate (source animal id): 4	> 64
isolate (source animal id): 7	≤ 8
isolate (source animal id): 14	16 (≈ 48.1 µM)
isolate (source animal id): 15	> 64
isolate (source animal id): 17	≤ 8
isolate (source animal id): 18	> 64
isolate (source animal id): 20	16 (≈ 48.1 µM)
isolate (source animal id): 23	16 (≈ 48.1 µM)
isolate (source animal id): 45	16 (≈ 48.1 µM)
isolate (source animal id): 53	≤ 8
isolate (source animal id): 83	≤ 8
isolate (source animal id): 88	> 64
isolate (source animal id): 92	32 (≈ 96.3 µM)
isolate (source animal id): 93	64 (≈ 193 µM)
isolate (source animal id): 99	16 (≈ 48.1 µM)
isolate (source animal id): 100	16 (≈ 48.1 µM)
isolate (source animal id): 105	16 (≈ 48.1 µM)
isolate (source animal id): 107	16 (≈ 48.1 µM)
isolate (source animal id): 108	16 (≈ 48.1 µM)
isolate (source animal id): 109	16 (≈ 48.1 µM)
isolate (source animal id): 110	32 (≈ 96.3 µM)
isolate (source animal id): 117	> 64
isolate (source animal id): 121	> 64
isolate (source animal id): 123	> 64
isolate (source animal id): 124	> 64
isolate (source animal id): 127	> 64
isolate (source animal id): 128	> 64
isolate (source animal id): 130	> 64
isolate (source animal id): 132	> 64
isolate (source animal id): 135	≤ 8
isolate (source animal id): 140	> 64
isolate (source animal id): 141	16 (≈ 48.1 µM)
isolate (source animal id): 142	32 (≈ 96.3 µM)
isolate (source animal id): 144	> 64
isolate (source animal id): 146	64 (≈ 193 µM)
isolate (source animal id): 147	16 (≈ 48.1 µM)
isolate (source animal id): 151	> 64
isolate (source animal id): 153	> 64
isolate (source animal id): 154	16 (≈ 48.1 µM)
isolate (source animal id): 156	16 (≈ 48.1 µM)
isolate (source animal id): 157	> 64
isolate (source animal id): 176	> 64
isolate (source animal id): 183	> 64
isolate (source animal id): 186	> 64
isolate (source animal id): 196	> 64
isolate (source animal id): 198	> 64
isolate (source animal id): 200	> 64
isolate (source animal id): 206	> 64
isolate (source animal id): 208	> 64
isolate (source animal id): 210	> 64
isolate (source animal id): 212	> 64
isolate (source animal id): 215	> 64
isolate (source animal id): 216	> 64
isolate (source animal id): 218	> 64
isolate (source animal id): 219	> 64
isolate (source animal id): 224	> 64
isolate (source animal id): 228	> 64
isolate (source animal id): 230	> 64
isolate (source animal id): 233	64 (≈ 193 µM)
isolate (source animal id): 238	> 64
isolate (source animal id): 239	> 64
isolate (source animal id): 241	> 64
isolate (source animal id): 242	> 64
isolate (source animal id): 243	> 64
isolate (source animal id): 245	≤ 8
isolate (source animal id): 246	> 64
isolate (source animal id): 247	> 64
isolate (source animal id): 248	≤ 8
isolate (source animal id): 250	> 64
isolate (source animal id): 251	> 64
isolate (source animal id): 252	64 (≈ 193 µM)
isolate (source animal id): 254	> 64
isolate (source animal id): 258	> 64
isolate (source animal id): 259	> 64
isolate (source animal id): 262	> 64
isolate (source animal id): 264	32 (≈ 96.3 µM)
isolate (source animal id): 265	16 (≈ 48.1 µM)
isolate (source animal id): 266	> 64
isolate (source animal id): 267	> 64
isolate (source animal id): 269	> 64
isolate (source animal id): 271	> 64
isolate (source animal id): 272	16 (≈ 48.1 µM)
isolate (source animal id): 274	> 64
isolate (source animal id): 276	≤ 8
isolate (source animal id): 278	> 64
isolate (source animal id): 280	16 (≈ 48.1 µM)
isolate (source animal id): 281	> 64
isolate (source animal id): 283	> 64
isolate (source animal id): 288	> 64
isolate (source animal id): 291	> 64
isolate (source animal id): 292	> 64
isolate (source animal id): 296	> 64
isolate (source animal id): 306	> 64
isolate (source animal id): 336	> 64
isolate (source animal id): 337	> 64
isolate (source animal id): 341	> 64

CC1(C)S[C@@H]2[C@H](NC(=O)Cc3ccccc3)C(=O)N2[C@H]1C(=O)O [Penicillin]
Settings	minimum inhibitory concentration [µg/mL]
isolate (source animal id): 3	≤ 0.12
isolate (source animal id): 4	≤ 0.12
isolate (source animal id): 7	≤ 0.12
isolate (source animal id): 14	≤ 0.12
isolate (source animal id): 15	0.25 (≈ 0.748 µM)
isolate (source animal id): 17	≤ 0.12
isolate (source animal id): 18	≤ 0.12
isolate (source animal id): 20	≤ 0.12
isolate (source animal id): 23	≤ 0.12
isolate (source animal id): 45	≤ 0.12
isolate (source animal id): 53	≤ 0.12
isolate (source animal id): 83	≤ 0.12
isolate (source animal id): 88	≤ 0.12
isolate (source animal id): 92	≤ 0.12
isolate (source animal id): 93	≤ 0.12
isolate (source animal id): 99	≤ 0.12
isolate (source animal id): 100	≤ 0.12
isolate (source animal id): 105	≤ 0.12
isolate (source animal id): 107	≤ 0.12
isolate (source animal id): 108	≤ 0.12
isolate (source animal id): 109	≤ 0.12
isolate (source animal id): 110	≤ 0.12
isolate (source animal id): 117	≤ 0.12
isolate (source animal id): 121	≤ 0.12
isolate (source animal id): 123	≤ 0.12
isolate (source animal id): 124	≤ 0.12
isolate (source animal id): 127	≤ 0.12
isolate (source animal id): 128	≤ 0.12
isolate (source animal id): 130	≤ 0.12
isolate (source animal id): 132	≤ 0.12
isolate (source animal id): 135	≤ 0.12
isolate (source animal id): 140	≤ 0.12
isolate (source animal id): 141	≤ 0.12
isolate (source animal id): 142	≤ 0.12
isolate (source animal id): 144	≤ 0.12
isolate (source animal id): 146	≤ 0.12
isolate (source animal id): 147	≤ 0.12
isolate (source animal id): 151	≤ 0.12
isolate (source animal id): 153	≤ 0.12
isolate (source animal id): 154	≤ 0.12
isolate (source animal id): 156	≤ 0.12
isolate (source animal id): 157	≤ 0.12
isolate (source animal id): 176	≤ 0.12
isolate (source animal id): 183	≤ 0.12
isolate (source animal id): 186	≤ 0.12
isolate (source animal id): 196	≤ 0.12
isolate (source animal id): 198	≤ 0.12
isolate (source animal id): 200	≤ 0.12
isolate (source animal id): 206	≤ 0.12
isolate (source animal id): 208	≤ 0.12
isolate (source animal id): 210	≤ 0.12
isolate (source animal id): 212	≤ 0.12
isolate (source animal id): 215	≤ 0.12
isolate (source animal id): 216	≤ 0.12
isolate (source animal id): 218	≤ 0.12
isolate (source animal id): 219	≤ 0.12
isolate (source animal id): 224	≤ 0.12
isolate (source animal id): 228	≤ 0.12
isolate (source animal id): 230	≤ 0.12
isolate (source animal id): 233	≤ 0.12
isolate (source animal id): 238	≤ 0.12
isolate (source animal id): 239	≤ 0.12
isolate (source animal id): 241	≤ 0.12
isolate (source animal id): 242	≤ 0.12
isolate (source animal id): 243	≤ 0.12
isolate (source animal id): 245	0.25 (≈ 0.748 µM)
isolate (source animal id): 246	≤ 0.12
isolate (source animal id): 247	≤ 0.12
isolate (source animal id): 248	≤ 0.12
isolate (source animal id): 250	≤ 0.12
isolate (source animal id): 251	≤ 0.12
isolate (source animal id): 252	≤ 0.12
isolate (source animal id): 254	0.25 (≈ 0.748 µM)
isolate (source animal id): 258	≤ 0.12
isolate (source animal id): 259	≤ 0.12
isolate (source animal id): 262	≤ 0.12
isolate (source animal id): 264	≤ 0.12
isolate (source animal id): 265	8 (≈ 23.9 µM)
isolate (source animal id): 266	≤ 0.12
isolate (source animal id): 267	≤ 0.12
isolate (source animal id): 269	≤ 0.12
isolate (source animal id): 271	≤ 0.12
isolate (source animal id): 272	8 (≈ 23.9 µM)
isolate (source animal id): 274	≤ 0.12
isolate (source animal id): 276	≤ 0.12
isolate (source animal id): 278	≤ 0.12
isolate (source animal id): 280	0.5 (≈ 1.5 µM)
isolate (source animal id): 281	≤ 0.12
isolate (source animal id): 283	0.25 (≈ 0.748 µM)
isolate (source animal id): 288	≤ 0.12
isolate (source animal id): 291	≤ 0.12
isolate (source animal id): 292	≤ 0.12
isolate (source animal id): 296	≤ 0.12
isolate (source animal id): 306	≤ 0.12
isolate (source animal id): 336	≤ 0.12
isolate (source animal id): 337	≤ 0.12
isolate (source animal id): 341	≤ 0.12
